In ChEMBL document CHEMBL5724696, “Autophagy assay results for EUbOPEN Chemogenomics Library” (2024):

How the values were obtained:
Type in all cases: functional, Homo sapiens
[1] = tested on: U2OS; assay: (§1) Here: values are normalized to the negative (DMSO; defined as 0% autophagy induction) and positive (250nM Torin1; mTOR inhibitor; defined as maximal inducer of autophagy = 100%) control compounds and represented as % of autophagy induction. […] The impact of autophagy induction on cells is complex and depends on the affected target. As such, the magnitude of a phenotype may not be equally mirrored in the %-value of autophagy induction and vice versa. The dynamics of the induction may indicate the mode of activation: e.g. activation via phosphorylation or a signaling cascade may occur fast, while activation via transcription factors may take considerably longer. […] Of note, treatment concentrations may be sub-optimal for specific compounds, leading to false negative annotations.; details: Culturing Media DMEM, 1 % Penicillin/Streptomycin, 10% Fetal bovin serum Add-On: No, Screening Media Control DMEM, Screening Media Samples DMEM
[2] = tested on: TERT-RPE1; assay: as §1; details: Culturing Media DMEM/F12 (1:1), 1 % Penicillin/Streptomycin, 10% Fetal bovin serum Add-On: No, Screening Media Control DMEM/F12 (1:1), Screening Media Samples DMEM/F12 (1:1)
[3] = tested on: U2OS; assay: as §1; details: Culturing Media DMEM, 1 % Penicillin/Streptomycin, 10% Fetal bovin serum Add-On: No, Screening Media Control DMEM, Screening Media Samples DMEM; remark: listed apart in the source
[4] = Compound Concentration 0.5 uM, Timepoint 12 hours
[5] = Compound Concentration 0.5 uM, Timepoint 24 hours
[6] = Compound Concentration 0.5 uM, Timepoint 36 hours
[7] = Compound Concentration 0.5 uM, Timepoint 60 hours
[8] = Compound Concentration 2 uM, Timepoint 12 hours
[9] = Compound Concentration 2 uM, Timepoint 24 hours
[10] = Compound Concentration 2 uM, Timepoint 36 hours
[11] = Compound Concentration 2 uM, Timepoint 60 hours
[12] = Compound Concentration 10 uM, Timepoint 12 hours
[13] = Compound Concentration 10 uM, Timepoint 24 hours
[14] = Compound Concentration 10 uM, Timepoint 36 hours
[15] = Compound Concentration 10 uM, Timepoint 60 hours

SMILES	autophagy induction [1, 4]	autophagy induction [1, 5]	autophagy induction [1, 6]	autophagy induction [1, 7]	autophagy induction [1, 8]	autophagy induction [1, 9]	autophagy induction [1, 10]	autophagy induction [1, 11]	autophagy induction [1, 12]	autophagy induction [1, 13]	autophagy induction [1, 14]	autophagy induction [1, 15]	autophagy induction [2, 4]	autophagy induction [2, 5]	autophagy induction [2, 6]	autophagy induction [2, 7]	autophagy induction [2, 8]	autophagy induction [2, 9]	autophagy induction [2, 10]	autophagy induction [2, 11]	other results
CC(C)NCC(O)c1ccc(N)c(C#N)c1 (configuration not stated) [CIMATEROL]	-8.937%	-2.541%	-0.28%	0.09617%	-0.2215%	-0.03889%	0.3661%	0.1358%	14.0499%	5.045%	2.283%	0.5754%	2.2717%	-0.618%	-7.669%	-22.0747%	9.171%	5.1156%	0.3735%	-11.1579%	autophagy induction [2, 12]: 13.5821%; autophagy induction [2, 13]: 11.7661%; autophagy induction [2, 14]: 4.317%; autophagy induction [2, 15]: -0.2093%; autophagy induction [3, 4]: 3.679%; autophagy induction [3, 5]: -3.232%; autophagy induction [3, 6]: -4.651%; autophagy induction [3, 7]: -4.997%; autophagy induction [3, 8]: 6.803%; autophagy induction [3, 9]: -0.3028%; autophagy induction [3, 10]: -4.0163%; autophagy induction [3, 11]: -10.3459%; autophagy induction [3, 12]: 5.959%; autophagy induction [3, 13]: -4.01%; autophagy induction [3, 14]: -7.491%; autophagy induction [3, 15]: -4.33%
COc1ccccc1CN[C@H]1C2CCN(CC2)[C@H]1C(c1ccccc1)c1ccccc1 [CP-96345]	8.36%	2.83%	0.2431%	0.5109%	-21.7864%	-9.531%	-7.223%	-5.938%	-2.456%	-0.4585%	-0.2201%	-2.05%	-7.147%	-11.4989%	-14.454%	-21.453%	-6.616%	-10.9647%	-14.8934%	-18.8514%	autophagy induction [2, 12]: 2.262%; autophagy induction [2, 13]: 3.387%; autophagy induction [2, 14]: 7.76%; autophagy induction [2, 15]: 2.279%; autophagy induction [3, 4]: -3.495%; autophagy induction [3, 5]: -5.808%; autophagy induction [3, 6]: -2.326%; autophagy induction [3, 7]: -4.4745%; autophagy induction [3, 8]: 5.091%; autophagy induction [3, 9]: 1.613%; autophagy induction [3, 10]: -0.5186%; autophagy induction [3, 11]: 0.7913%; autophagy induction [3, 12]: 26.1721%; autophagy induction [3, 13]: 19.1804%; autophagy induction [3, 14]: 19.6555%; autophagy induction [3, 15]: 18.5295%
